In the CheMixHub viscosity set:

Assay: xn = mol fraction of the nth substance listed

CS(C)=O + Cc1ccc(C)cc1
viscosity [mPa·s], 101 kPa
Settings | x1 = 0.0993 | x1 = 0.2067 | x1 = 0.3019 | x1 = 0.4 | x1 = 0.5042 | x1 = 0.59 | x1 = 0.6956 | x1 = 0.801 | x1 = 0.8963
293.15 K | 0.695 | 0.771 | 0.857 | 0.935 | 1.032 | 1.2 | 1.372 | 1.586 | 1.84
303.15 K | 0.612 | 0.676 | 0.744 | 0.828 | 0.913 | 1.027 | 1.167 | 1.339 | 1.557
313.15 K | 0.551 | 0.605 | 0.661 | 0.728 | 0.787 | 0.89 | 1.004 | 1.142 | 1.302
323.15 K | 0.49 | 0.555 | 0.582 | 0.636 | 0.705 | 0.768 | 0.861 | 0.971 | 1.1

OC1CCCCC1 + Cc1ccc(Cl)cc1
303.15 K, 101 kPa
Settings | viscosity [mPa·s]
x1 = 0.1115 | 4.565
x1 = 0.2202 | 8.427
x1 = 0.3262 | 12.25
x1 = 0.4296 | 16.24
x1 = 0.5305 | 20.28
x1 = 0.6289 | 24.45
x1 = 0.725 | 28.53
x1 = 0.8188 | 32.85
x1 = 0.9105 | 36.99

C1CCCCCCC1 + Cc1cccc(C)c1
viscosity [mPa·s], 101 kPa
Settings | x2 = 0.1149 | x2 = 0.1922 | x2 = 0.2902 | x2 = 0.412 | x2 = 0.4831 | x2 = 0.6078 | x2 = 0.6874 | x2 = 0.7916 | x2 = 0.9058
308.15 K | 1.376 | 1.182 | 1.004 | 0.8506 | 0.7816 | 0.6836 | 0.64 | 0.5877 | 0.5525
313.15 K | 1.266 | 1.085 | 0.9357 | 0.7866 | 0.734 | 0.6372 | 0.6046 | 0.5645 | 0.5202

C1CCCCCCC1 + Cc1ccccc1
303 K, 101 kPa
Settings | viscosity [mPa·s]
x2 = 0.0411 | 1.726
x2 = 0.1605 | 1.259
x2 = 0.3113 | 1.024
x2 = 0.4874 | 0.8342
x2 = 0.6192 | 0.7126
x2 = 0.7463 | 0.627
x2 = 0.8614 | 0.5716
x2 = 0.9174 | 0.5484
x2 = 0.973 | 0.5311

CCCCCCCO + Cc1ccccc1
viscosity [mPa·s], 101 kPa
Settings | 298.15 K | 308.15 K
x2 = 0.0525 | 4.969 | 3.846
x2 = 0.1014 | 4.357 | 3.429
x2 = 0.1518 | 3.776 | 3.068
x2 = 0.1859 | 3.412 | 2.862
x2 = 0.2489 | 2.873 | 2.456
x2 = 0.3011 | 2.473 | 2.202
x2 = 0.3504 | 2.153 | 1.942
x2 = 0.4006 | 1.843 | 1.719
x2 = 0.4494 | 1.63 | 1.542
x2 = 0.5003 | 1.435 | 1.357
x2 = 0.5486 | 1.245 | 1.223
x2 = 0.5903 | 1.12 | 1.094
x2 = 0.6493 | 0.965 | 0.967
x2 = 0.7011 | 0.893 | 0.874
x2 = 0.752 | 0.768 | 0.766
x2 = 0.8041 | 0.676 | 0.664
x2 = 0.8495 | 0.645 | 0.624
x2 = 0.9009 | 0.6 | 0.575
x2 = 0.9487 | 0.572 | 0.527

CCOC(=O)C(C)O (stereo not drawn) + Cc1ccccc1
101 kPa
Settings | viscosity [mPa·s]
298.15 K, x1 = 0.7999 | 1.695
303.15 K, x1 = 0.3 | 0.7345
303.15 K, x1 = 0.7 | 1.295
313.15 K, x1 = 0.4 | 0.7225

CS(C)=O + Cc1ccccc1
Settings | viscosity [mPa·s]
298.15 K, 101 kPa, x1 = 0.1 | 0.606
298.15 K, 101 kPa, x1 = 0.2 | 0.675
298.15 K, 101 kPa, x1 = 0.3 | 0.761
298.15 K, 101 kPa, x1 = 0.4 | 0.867
298.15 K, 101 kPa, x1 = 0.5 | 0.99
298.15 K, 101 kPa, x1 = 0.6 | 1.122
298.15 K, 101 kPa, x1 = 0.7 | 1.268
298.15 K, 101 kPa, x1 = 0.8 | 1.452
298.15 K, 101 kPa, x1 = 0.9 | 1.679
298.15 K, 101.3 kPa, x1 = 0.1025 | 0.609
298.15 K, 101.3 kPa, x1 = 0.2029 | 0.671
298.15 K, 101.3 kPa, x1 = 0.3843 | 0.838
298.15 K, 101.3 kPa, x1 = 0.504 | 0.964
298.15 K, 101.3 kPa, x1 = 0.6035 | 1.095
298.15 K, 101.3 kPa, x1 = 0.7049 | 1.25
298.15 K, 101.3 kPa, x1 = 0.7997 | 1.43
298.15 K, 101.3 kPa, x1 = 0.9017 | 1.686
302.4 K, 101 kPa, x1 = 0.0908 | 1.087
302.4 K, 101 kPa, x1 = 0.2568 | 1.399
302.4 K, 101 kPa, x1 = 0.4732 | 1.615
302.4 K, 101 kPa, x1 = 0.5996 | 2.242
302.4 K, 101 kPa, x1 = 0.7139 | 2.506
302.4 K, 101 kPa, x1 = 0.8665 | 3.234
303.15 K, 101.3 kPa, x1 = 0.1025 | 0.574
303.15 K, 101.3 kPa, x1 = 0.2029 | 0.636
303.15 K, 101.3 kPa, x1 = 0.3843 | 0.777
303.15 K, 101.3 kPa, x1 = 0.504 | 0.894
303.15 K, 101.3 kPa, x1 = 0.6035 | 1.01
303.15 K, 101.3 kPa, x1 = 0.7049 | 1.149
303.15 K, 101.3 kPa, x1 = 0.7997 | 1.309
303.15 K, 101.3 kPa, x1 = 0.9017 | 1.526
308.15 K, 101 kPa, x1 = 0.1 | 0.537
308.15 K, 101 kPa, x1 = 0.2 | 0.594
308.15 K, 101 kPa, x1 = 0.3 | 0.664
308.15 K, 101 kPa, x1 = 0.4 | 0.741
308.15 K, 101 kPa, x1 = 0.5 | 0.833
308.15 K, 101 kPa, x1 = 0.6 | 0.937
308.15 K, 101 kPa, x1 = 0.7 | 1.065
308.15 K, 101 kPa, x1 = 0.8 | 1.217
308.15 K, 101 kPa, x1 = 0.9 | 1.407
308.15 K, 101.3 kPa, x1 = 0.1025 | 0.54
308.15 K, 101.3 kPa, x1 = 0.2029 | 0.598
308.15 K, 101.3 kPa, x1 = 0.3843 | 0.727
308.15 K, 101.3 kPa, x1 = 0.504 | 0.833
308.15 K, 101.3 kPa, x1 = 0.6035 | 0.963
308.15 K, 101.3 kPa, x1 = 0.7049 | 1.062
308.15 K, 101.3 kPa, x1 = 0.7997 | 1.204
308.15 K, 101.3 kPa, x1 = 0.9017 | 1.398
318.15 K, 101 kPa, x1 = 0.1 | 0.482
318.15 K, 101 kPa, x1 = 0.2 | 0.53
318.15 K, 101 kPa, x1 = 0.3 | 0.587
318.15 K, 101 kPa, x1 = 0.4 | 0.654
318.15 K, 101 kPa, x1 = 0.5 | 0.731
318.15 K, 101 kPa, x1 = 0.6 | 0.817
318.15 K, 101 kPa, x1 = 0.7 | 0.921
318.15 K, 101 kPa, x1 = 0.8 | 1.047
318.15 K, 101 kPa, x1 = 0.9 | 1.201

OC1CCCCC1 + Cc1ccccc1Cl
303.15 K, 101 kPa
Settings | viscosity [mPa·s]
x1 = 0.1104 | 4.861
x1 = 0.2183 | 8.854
x1 = 0.3237 | 12.93
x1 = 0.4268 | 17.06
x1 = 0.5276 | 21.22
x1 = 0.6262 | 25.36
x1 = 0.7227 | 29.4
x1 = 0.8171 | 33.34
x1 = 0.9095 | 37.22

C1CCCCCCC1 + Clc1ccccc1
viscosity [mPa·s], 101 kPa
Settings | x1 = 0.1213 | x1 = 0.2071 | x1 = 0.3009 | x1 = 0.3941 | x1 = 0.5112 | x1 = 0.5915 | x1 = 0.6905 | x1 = 0.799 | x1 = 0.9125
308.15 K | 0.7246 | 0.7681 | 0.8486 | 0.9205 | 1.014 | 1.079 | 1.159 | 1.297 | 1.544
313.15 K | 0.6673 | 0.7011 | 0.7511 | 0.8196 | 0.9056 | 0.951 | 1.042 | 1.197 | 1.402
